According to patent publication US10155038B2, “Cells prepared by transient transfection and methods of use thereof” (Yale University, priority 2007, dated 2018):

Tests used:
metastatic melanoma = details: cited from earlier work
[1] = system: mantle cell lymphoma (MCL) cell lines; assay: Viability of MCL cell lines, CELLTITER-GLO assay; assay type: cell-based
Source text: FIG. 13 is a line graph showing viability (percent) of various mantle cell lymphoma (MCL) cancer cell lines (SP-53, SP-49, Granta, JEKO, and TVM) following treatment with various concentrations (M) of the BH3 mimetic ABT-737.
FIGS. 14A-14D are plots showing viability (Relative Light Units) following a CELLTITER-GLO® assay of various mantle cell lymphoma (MCL) cancer cell lines: JVM-2 (FIG. 14A), Granta-519 (FIG. 14B), JEKO-1 (FIG. 14C), and SP-53 (FIG. 14D) following treatment with various concentrations (M) of the BH3 mimetic BIM SAHB (-▪-), or a BIM SAHB R153D variant control (-●-).
A panel of mantle cell lymphoma (MCL) cell lines were exposed to BIM SAHBA, BIM SAHBA(R153D), or vehicle alone for 24 hours in OptiMEM medium followed by viability testing using the CELLTITER-GLO® (Promega) assay.

EML cells = assay: GFP transfection of EML cells by nucleofection, FACS; assay type: cell-based, mouse; details: FIG. 2B; for GFP expression when ATP in the E-PAP reaction was replaced by ATP analog: without tail extension
Experimental: Electroporation was performed using an Amaxa NUCLEOFECTOR™-II (Amaxa Biosystems, Cologne, Germany) in accordance with manufacturer recommendations. Jurkat and B cell lines were transfected using NUCLEOFECTOR™-II solution V and the set of recommended regimes for electroporation. EML cells were transfected using solutions V, T and R and different regimes of electroporation. T lymphocytes were transfected using T cell NUCLEOFECTOR™-II solution and different regimes of electroporation. Alternative methods of nucleic acids delivery were also used: cationic liposome mediated transfection was performed using LIPOFECTIN® or LIPOFECTAMIN® (Invitrogen). Electroporation was also performed with the ECM 830 (BTX) (Harvard Instruments, Boston, Mass.) or the Gene Pulser II (BioRad, Denver, Colo.), Multiporator (Eppendorf, Hamburg Germany). All procedures were performed as directed by the manufacturers. pmaxGFP plasmid DNA (Amaxa Biosystems) was used as the DNA control. The efficiency of transfection (ET) was determined 18h after transfection by fluorescence activated cell sorting (FACS). In some experiments transfectants were further analyzed each 24h until GFP could not longer be detected. Cell viability was determined by trypan blue dye exclusion.
Flow cytometry was performed using the fluorescent activated cell sorting (FACS®) assay. Flow cytometry was performed on cell subpopulations was performed at the Yale Cancer Center Flow Cytometry Shared Resource, using a FACS® Calibur flow cytometer (Becton-Dickinson, San Jose, Calif.) equipped with 488 nm laser and the standard filter setup. Fluorescence signals were collected on a logarithmic scale. A minimum of ten thousand cells were interrogated for each sample. Analysis of data was performed using FlowJo software (Tree Star, Inc., San Carlos, Calif.). The expression efficiency was calculated as the difference between the geometric mean of fluorescence of the transfectants and control (mock transfected) cells. […]

GFP mRNA = assay: siRNA inhibition of GFP mRNA expression in Jurkat cells; assay type: cell-based; details: Jurkat cells with EGFP mRNA; the day after transfection
Source text: Jurkat T cells were electroporated with different amount of FITC labeled siRNA. The condition and the kinetics of siRNA transfection were identical to mRNA transfection.

caspase 3/7 = assay: Caspase 3/7 activation in MCL cell lines; assay type: cell-based; details: JVM-2, Granta-519, JEKO-1, SP-53
Source text: FIGS. 15A-15D are plots showing caspase 3/7 activation (Relative Light Units) in various mantle cell lymphoma (MCL) cancer cell lines: JVM-2 (FIG. 15A), Granta-519 (FIG. 15B), JEKO-1 (FIG. 15C), and SP-53 (FIG. 15D) following treatment with various concentrations (μM) of the BH3 mimetic SAHB (right hand bar in each pair), or a SAHB R153D variant control (left hand bar in each pair).

nivolumab: anti-PD-1 antibody
overall response rate (metastatic melanoma): 30-40%

CN(C)CC[C@H](CSc1ccccc1)Nc1ccc(S(=O)(=O)NC(=O)c2ccc(N3CCN(Cc4ccccc4-c4ccc(Cl)cc4)CC3)cc2)cc1[N+](=O)[O-] [ABT-737]
effect on viability ([1]; FIG. 13, SP-53, SP-49, Granta, JEKO, JVM): reduced viability in a subset of the MCL cell lines

Nc1ncnc2c1nnn2[C@@H]1O[C@H](CO)[C@@H](O)[C@H]1O [8-azaadenosine]
GFP expression when ATP in the E-PAP reaction was replaced by ATP analog (EML cells): increased

Nc1ncnc2c1ncn2[C@@H]1O[C@H](CO)C[C@H]1O [cordycepin]
GFP expression when ATP in the E-PAP reaction was replaced by ATP analog (EML cells): increased

CO[C@H]1[C@@H](O)[C@H](n2c[n+](C)c3c(=O)[nH]c(N)nc32)O[C@@H]1COP(=O)(O)OP(=O)(O)OP(=O)(O)OC[C@H]1O[C@@H](n2cnc3c(=O)[nH]c(N)nc32)[C@H](O)[C@@H]1O [ARCA, 3′-O-Methyl-m7G[5′]ppp[5′]G]
increase of GFP expression compared to the standard capping procedure (EML cells; GFP mRNA capped with ARCA): two-fold increase

anti-GFP siRNA: anti-GFP siRNA (GCAAGCUGACCCUGAAGUUCAU) (chemistry not given here)
inhibition of GFP mRNA expression (GFP mRNA): 80%

synthetic peptide modeled on the BIM BH3 death domain with all-hydrocarbon crosslink; IWIAQELRXIGDXFNAYYARR (SEQ ID NO:1) [BIM SAHBA]
EC50s, impaired viability ([1]; 24 hours, OptiMEM medium, panel of MCL cell lines): low micromolar range | caspase 3/7 activation (caspase 3/7): correlated with caspase 3/7 activation
